Measurements from ChEMBL document CHEMBL3638480, “Inhibitors” (2013).

Molecular target: Glutaminyl-peptide cyclotransferase (Homo sapiens, UniProt Q16769)
Assay: Spectrophotometic Assay: Spectrophotometic Assay: This novel assay was used to determine the kinetic parameters for most of the QC substrates. QC activity was analyzed spectrophotometrically using a continuous method, that was derived by adapting a previous discontinuous assay (Bateman, R.C.J. 1989 J Neurosci Methods 30, 23-28).

Sequence of Glutaminyl-peptide cyclotransferase (Q16769 whole entry): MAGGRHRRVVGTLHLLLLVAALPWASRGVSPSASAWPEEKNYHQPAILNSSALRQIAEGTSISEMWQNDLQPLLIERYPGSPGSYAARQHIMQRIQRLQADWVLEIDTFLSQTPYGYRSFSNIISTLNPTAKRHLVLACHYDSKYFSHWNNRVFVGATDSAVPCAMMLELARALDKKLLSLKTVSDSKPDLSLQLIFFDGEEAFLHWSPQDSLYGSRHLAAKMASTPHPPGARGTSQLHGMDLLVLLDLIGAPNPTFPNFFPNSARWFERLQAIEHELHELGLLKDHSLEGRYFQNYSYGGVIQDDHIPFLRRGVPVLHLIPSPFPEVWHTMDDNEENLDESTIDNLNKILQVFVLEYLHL

Row | IC50 [µM] | SMILES
1 | < 10 | COCCOc1ccc(C2CNC(=O)N2c2ccc3[nH]cnc3c2)cc1 (stereo not drawn)
2 | < 10 | COCCCc1ccc([C@H]2COC(=O)N2c2ccc3[nH]cnc3c2)cc1
3 | < 10 | O=C1OC[C@H](c2ccc(OCCN3CCOCC3)cc2)N1c1ccc2[nH]cnc2c1
4 | < 10 | O=C1OCC(c2ccc(C3CCOCC3)cc2)N1c1ccc2[nH]cnc2c1 (stereo not drawn)
5 | < 10 | O=C1NCC(c2ccc(OC(F)(F)C(F)F)cc2)N1c1ccc2[nH]cnc2c1 (stereo not drawn)
6 | < 10 | COCCCc1ccc(C2CNC(=O)N2c2ccc3[nH]cnc3c2)cc1 (stereo not drawn)
7 | < 10 | O=C1NCC(c2ccc(N3CCOCC3)c(Cl)c2)N1c1ccc2nc[nH]c2c1 (stereo not drawn)
8 | < 10 | CCCCCOc1ccc(C2CNC(=O)N2c2ccc3nc[nH]c3c2)cc1 (stereo not drawn)
9 | < 10 | O=C1OC[C@H](c2cccc(-c3cccc(Cl)c3)c2)N1c1ccc2nc[nH]c2c1
10 | < 10 | CCCOc1ccc([C@H]2COC(=O)N2c2cc(C)c3[nH]cnc3c2)cc1
11 | < 10 | O=C1NCC(c2ccc(O)cc2)N1c1ccc2[nH]cnc2c1 (stereo not drawn)
12 | < 10 | O=C1OC[C@H](CCc2ccccc2)N1c1ccc2[nH]cnc2c1
13 | < 10 | O=C1NCC(c2ccc(N3CCCC3)cc2)N1c1ccn2ccnc2c1 (stereo not drawn)
14 | < 10 | O=C1NCC(c2ccc(N3CCOCC3)cc2)N1c1ccc2[nH]cnc2c1 (stereo not drawn)
15 | < 10 | O=C1OC[C@H](c2cccc(F)c2F)N1c1ccc2nc[nH]c2c1
16 | < 10 | O=C1OC[C@H](c2ccc(OCCN3CCNCC3)cc2)N1c1ccc2[nH]cnc2c1
17 | < 10 | CCCOc1ccc([C@H]2OC(=O)N(c3ccc4nc[nH]c4c3)[C@H]2c2ccc(OCCC)cc2)cc1 (single isomer, unassigned)
18 | < 10 | O=C1OC[C@H](C2CCC(c3ccccc3)CC2)N1c1ccc2[nH]cnc2c1 (stereo partly drawn)
19 | < 10 | O=C1OC[C@H](c2ccc(N3CCOCC3)cc2)N1c1ccc2[nH]cnc2c1
20 | < 10 | O=C1OC[C@H](c2cccc(Cl)c2)N1c1ccc2nc[nH]c2c1
21 | < 10 | Cc1cc(N2C(=O)OC[C@@H]2c2ccccc2)cc2nc[nH]c12
22 | < 10 | O=C1CCC(c2ccc3c(c2)OCCO3)N1c1ccc2[nH]cnc2c1 (stereo not drawn)
23 | < 10 | O=C1NCC(c2ccc(C3CCCCC3)cc2)N1c1ccc2[nH]cnc2c1 (stereo not drawn)
